In patent publication US9242996B2 (Novartis AG, priority 2013, dated 2016):

Assays:
activated ERK2 [1] = target: T1, activated ERK2 (Homo sapiens (Human), UniProt P28482); assay: Activated ERK2 kinase assay, ERK2 New conditions (AlphaScreen, ERKtide phosphorylation); assay type: biochemical; details: 0.25 nM ERK2, 200 nM ERKtide peptide, 35 μM ATP, 30 min preincubation
Procedure, shortened: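 0.25 nM ERK2 preincubated 30 min with compound, then reacted 2–3 h at ambient temperature with 200 nM ERKtide and 35 µM ATP (final) in HEPES pH 7.5 buffer. EDTA stop; phospho-peptide detected by AlphaScreen after overnight incubation; IC50 from four-parameter fit.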

activated ERK2 [2] = target: T1, activated ERK2; assay: Activated ERK2 (20 pM) Kinase Assay (AlphaScreen, ERKtide phosphorylation); assay type: biochemical; details: 0.02 nM ERK2, 400 nM ERKtide peptide, 35 μM ATP, 30 min preincubation
Procedure, shortened: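 Activated human ERK2 (0.02 nM) preincubated 30 min with compounds, then 400 nM ERKtide and 35 μM ATP added for 4 h at ambient temperature in HEPES pH 7.5, MgCl2, DTT, Tween-20, BSA. EDTA stop; phospho-peptide read by AlphaScreen after overnight dark incubation; four-parameter IC50.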

T1 sequence (P28482 whole entry): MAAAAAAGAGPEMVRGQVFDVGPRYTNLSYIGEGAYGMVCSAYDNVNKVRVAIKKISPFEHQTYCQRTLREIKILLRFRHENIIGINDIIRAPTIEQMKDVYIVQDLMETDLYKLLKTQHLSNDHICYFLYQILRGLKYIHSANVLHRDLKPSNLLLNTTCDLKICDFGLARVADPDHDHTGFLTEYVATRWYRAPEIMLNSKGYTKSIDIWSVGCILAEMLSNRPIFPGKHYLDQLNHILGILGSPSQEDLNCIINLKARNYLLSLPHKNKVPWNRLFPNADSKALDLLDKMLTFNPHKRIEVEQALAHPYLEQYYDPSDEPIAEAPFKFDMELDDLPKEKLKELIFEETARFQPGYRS

Compound	IC50 (activated ERK2 [1]) [nM]	IC50 (activated ERK2 [2]) [nM]
CS(=O)(=O)[C@H]1CC[C@@H](c2cnc(N)c(-c3ccc(C(=O)NCc4ccccc4)c(F)c3)n2)CC1 [Example 16, 4-(3-amino-6-((1s,4s)-4-(methylsulfonyl)cyclohexyl)pyrazin-2-yl)-N-benzyl-2-fluorobenzamide]	206	197
Nc1ncc(C2CCCCC2)nc1-c1ccc(C(=O)NCc2ccccc2)c(F)c1 [Example 421, 4-(3-amino-6-cyclo-hexylpyrazin-2-yl)-N-benzyl-2-fluorobenzamide]	12.6	6.38
Nc1ncc(C2=CCOCC2)nc1-c1ccc(C(=O)NCc2ccccc2)c(F)c1 [Example 427, 4-(3-amino-6-(3,6-dihydro-2H-pyran-4-yl)pyrazin-2-yl)-N-benzyl-2-fluorobenzamide]	16.7	6.41
Cc1c(-c2cnc(N)c(-c3ccc(C(=O)N[C@H](CO)c4cccc(Cl)c4)c(F)c3)c2)cnn1C [Example 151, (S)-4-(2-amino-5-(1,5-dimethyl-1H-pyrazol-4-yl)pyridin-3-yl)-N-(1-(3-chlorophenyl)-2-hydroxyethyl)-2-fluorobenzamide]	0.115	0.0233
Nc1ncc(C2=CCCCC2)nc1-c1ccc(C(=O)NCc2ccccc2)c(F)c1 [Example 424, 4-(3-amino-6-(cyclohex-1-en-1-yl)pyrazin-2-yl)-N-benzyl-2-fluorobenzamide]	155	113
Nc1ncc(C2CCS(=O)(=O)C2)cc1-c1ccc(C(=O)NCc2ccccc2)c(F)c1 (racemic) [Example 4, 4-(2-amino-5-(1,1-dioxidotetrahydrothiophen-3-yl)pyridin-3-yl)-N-benzyl-2-fluorobenzamide]	315	–
Cc1oncc1-c1cnc(N)c(-c2ccc(C(=O)N[C@H](CO)c3cccc(F)c3)c(F)c2)c1 [Example 165, (S)-4-(2-amino-5-(5-methylisoxazol-4-yl)pyridin-3-yl)-2-fluoro-N-(1-(3-fluorophenyl)-2-hydroxyethyl)benzamide]	390	–
Nc1ncc(C2CNC(=O)C2)cc1-c1ccc(C(=O)NCc2ccccc2)c(F)c1 (centres unmarked) [Example 316, 4-(2-amino-5-(5-oxopyrrolidin-3-yl)pyridin-3-yl)-N-benzyl-2-fluorobenzamide]	330	–
N=C1OC[C@@H]2C[C@H](c3cnc(N)c(-c4ccc(C(=O)N[C@H](CO)c5cccc(Cl)c5)c(F)c4)c3)CN12 [Example 10, 4-(2-amino-5-((6R,7aS)-3-iminohexahydropyrrolo[1,2-c]oxazol-6-yl)pyridin-3-yl)-N—((S)-1-(3-chlorophenyl)-2-hydroxyethyl)-2-fluorobenzamide]	12.1	–
NC(=O)c1ccc(-c2nc(C3CCOCC3)cnc2N)cc1F [Example 319, 4-(3-amino-6-(tetrahydro-2H-pyran-4-yl)pyrazin-2-yl)-2-fluorobenzamide]	151	–
COCCc1cnc(N)c(-c2ccc(C(=O)N[C@H](CO)c3ccccc3)c(F)c2)n1 [Example 112, (S)-4-(3-amino-6-(2-methoxyethyl)pyrazin-2-yl)-2-fluoro-N-(2-hydroxy-1-phenylethyl)benzamide]	141	–
COC1CCC(c2cnc(N)c(-c3ccc(C(=O)NCc4ccccc4)c(F)c3)n2)C1 (centres unmarked) [Example 104, 4-(3-amino-6-(3-methoxycyclopentyl)pyrazin-2-yl)-N-benzyl-2-fluorobenzamide]	191	–
N#CCCc1cnc(N)c(-c2ccc(C(=O)N[C@H](CO)c3ccccc3)c(F)c2)n1 [Example 114, (S)-4-(3-amino-6-(2-cyanoethyl)pyrazin-2-yl)-2-fluoro-N-(2-hydroxy-1-phenylethyl)benzamide]	124	–
CN(C(=O)c1ccc(-c2nc(C3CCOCC3)cnc2N)cc1F)[C@H](CO)c1ccccc1 [Example 53, (S)-4-(3-amino-6-(tetrahydro-2H-pyran-4-yl)pyrazin-2-yl)-2-fluoro-N-(2-hydroxy-1-phenylethyl)-N-methylbenzamide]	12.3	–
Nc1ncc(C2CCOCC2)nc1-c1ccc(C(=O)N2COC[C@@H]2c2ccccc2)cc1 [Example 54, (S)-(4-(3-amino-6-(tetrahydro-2H-pyran-4-yl)pyrazin-2-yl)phenyl)(4-phenyloxazolidin-3-yl)methanone]	107	–

The remaining lines, values ahead:

IC50 (activated ERK2 [1]) [nM]	IC50 (activated ERK2 [2]) [nM]	Compound
0.147	0.0614	C[C@@H](NC(=O)c1ccc(-c2nc(C3CCCCC3)cnc2N)cc1F)c1cc(F)cc(S(C)(=O)=O)c1 [Example 423, (R)-4-(3-amino-6-cyclo-hexylpyrazin-2-yl)-2-fluoro-N-(1-(3-fluoro-5-(methylsulfonyl)phenyl)ethyl) benzamide]
0.104	0.0263	Cc1cccc([C@@H](CO)NC(=O)c2ccc(-c3nc(C4CCOCC4)cnc3N)cc2F)c1 [Example 309, (S)-4-(3-amino-6-(tetrahydro-2H-pyran-4-yl)pyrazin-2-yl)-2-fluoro-N-(2-hydroxy-1-(m-tolyl)ethyl) benzamide]
0.503	0.221	C[C@@H](NC(=O)c1ccc(-c2nc(C3=CCOCC3)cnc2N)cc1F)c1cc(F)cc(S(C)(=O)=O)c1 [Example 429, (R)-4-(3-amino-6-(3,6-dihydro-2H-pyran-4-yl)pyrazin-2-yl)-2-fluoro-N-(1-(3-fluoro-5-(methylsulfonyl)phenyl)ethyl) benzamide]
0.787	0.343	COCC(=O)N[C@H]1CC[C@H](c2cnc(N)c(-c3ccc(C(=O)N[C@H](CO)c4cccc(Cl)c4)c(F)c3)n2)CC1 [Example 430, 4-(3-amino-6-((1r,4S)-4-(2-methoxy-acetamido)cyclohexyl)pyrazin-2-yl)-N-((S)-1-(3-chlorophenyl)-2-hydroxyethyl)-2-fluorobenzamide]
0.169	0.0378	Cc1cccc([C@@H](CO)NC(=O)c2ccc(-c3cc(-c4cn(C)nc4C)cnc3N)cc2F)c1 [Example 283, (S)-4-(2-amino-5-(1,3-dimethyl-1H-pyrazol-4-yl)pyridin-3-yl)-2-fluoro-N-(2-hydroxy-1-(m-tolyl)ethyl) benzamide]
0.518	0.429	Nc1ncc(C2CCOCC2)nc1-c1ccc(C(=O)N[C@H](CO)c2cccc(F)c2)c(F)c1 [Example 279, (S)-4-(3-amino-6-(tetrahydro-2H-pyran-4-yl)pyrazin-2-yl)-2-fluoro-N-(1-(3-fluorophenyl)-2-hydroxyethyl) benzamide]
4.53	1.49	Nc1ncc([C@H]2CC[C@H](N)CC2)nc1-c1ccc(C(=O)N[C@H](CO)c2cccc(Cl)c2)c(F)c1 [Example 191, 4-(3-amino-6-((1r,45)-4-aminocyclohexyl)pyrazin-2-yl)-N—((S)-1-(3-chlorophenyl)-2-hydroxyethyl)-2-fluorobenzamide]
0.153	0.0715	CCn1cc(-c2cnc(N)c(-c3ccc(C(=O)N[C@H](CO)c4cccc(Cl)c4)c(F)c3)c2)cn1 [Example 297, (S)-4-(2-amino-5-(1-ethyl-1H-pyrazol-4-yl)pyridin-3-yl)-N-(1-(3-chlorophenyl)-2-hydroxyethyl)-2-fluorobenzamide]
0.158	0.0785	COCCn1cc(-c2cnc(N)c(-c3ccc(C(=O)N[C@H](CO)c4cccc(Cl)c4)c(F)c3)c2)cn1 [Example 172, (S)-4-(2-amino-5-(1-(2-methoxyethyl)-1H-pyrazol-4-yl)pyridin-3-yl)-N-(1-(3-chlorophenyl)-2-hydroxyethyl)-2-fluorobenzamide]
0.192	0.0814	Cn1cc(-c2cnc(N)c(-c3ccc(C(=O)N[C@H](CO)c4cc(F)cc(Cl)c4)c(F)c3)c2)cn1 [Example 289, (S)-4-(2-amino-5-(1-methyl-1H-pyrazol-4-yl)pyridin-3-yl)-N-(1-(3-chloro-5-fluorophenyl)-2-hydroxyethyl)-2-fluorobenzamide]
0.228	0.0655	Cn1nncc1-c1cnc(N)c(-c2ccc(C(=O)N[C@H](CO)c3cccc(Cl)c3)c(F)c2)c1 [Example 300, (S)-4-(2-amino-5-(1-methyl-1H-1,2,3-triazol-5-yl)pyridin-3-yl)-N-(1-(3-chlorophenyl)-2-hydroxyethyl)-2-fluorobenzamide]
12.1	–	CS(=O)(=O)c1cccc(CNC(=O)c2ccc(-c3nc(C4CC4)cnc3N)cc2F)c1 [Example 99, 4-(3-amino-6-cyclopropylpyrazin-2-yl)-2-fluoro-N-(3-(methylsulfonyl)benzyl)benzamide]
7.76	–	C[C@@H]1C[C@H](c2cnc(N)c(-c3ccc(C(=O)NCc4cccc(S(C)(=O)=O)c4)cc3)n2)CCO1 [Example 100, 4-(3-amino-6-((2R,4R)-2-methyltetrahydro-2H-pyran-4-yl)pyrazin-2-yl)-N-(3-(methylsulfonyl)benzyl)benzamide]
0.242	–	CS(=O)(=O)c1cc(F)cc(CNC(=O)c2ccc(-c3nc(C4CCOCC4)cnc3N)cc2F)c1 [Example 310, 4-(3-amino-6-(tetrahydro-2H-pyran-4-yl)pyrazin-2-yl)-2-fluoro-N-(3-fluoro-5-(methylsulfonyl)benzyl)benzamide]
5.68	–	C[C@@H](NC(=O)c1ccc(-c2nc([C@H]3CC[C@@H](O)CC3)cnc2N)cc1F)c1cccc(Cl)c1 [Example 416, 4-(3-amino-6-((1s,4S)-4-hydroxy-cyclohexyl)pyrazin-2-yl)-N-((R)-1-(3-chlorophenyl)ethyl)-2-fluorobenzamide]
1.74	–	Nc1ncc(-c2cn[nH]c2)cc1-c1ccc(C(=O)N[C@H](CO)c2ccccc2)c(F)c1 [Example 290, (S)-4-(2-amino-5-(1H-pyrazol-4-yl)pyridin-3-yl)-2-fluoro-N-(2-hydroxy-1-phenylethyl) benzamide]
